Patent US20240025862A1, “SUBSTITUTED N-PHENYLURACILS AND SALTS THEREOF, AND USE THEREOF AS HERBICIDAL ACTIVE SUBSTANCES” (Bayer Aktiengesellschaft, priority 2020, published 2024)

Assays:
Type in all cases: in vivo
[1] = test system: Veronica persica (VERPE); assay: Post-emergence herbicidal action, greenhouse pot test
Procedure: (§1) Seeds of monocotyledonous and dicotyledonous weeds and crop plants were placed in sandy loam in plastic or wood-fiber pots, covered with soil and cultivated in a greenhouse under controlled growth conditions. 2 to 3 weeks after sowing, the test plants were treated at the one-leaf stage. The compounds of the invention, formulated in the form of wettable powders (WP) or as emulsion concentrates (EC), were then sprayed onto the green parts of the plants as aqueous suspension or emulsion with addition of 0.5% additive at a water application rate of 600 l/ha (converted). After the test plants had been kept in the greenhouse under optimum growth conditions for about 3 weeks, the activity of the preparations was rated visually in comparison to untreated controls. For example, 100% activity=the plants have died, 0% activity=like control plants.
(§2) Tables A1 to A14 below show the effects of selected compounds of the general formula (I) according to Tables I.1 to I.33 on various harmful plants and at an application rate corresponding to 20 g/ha and less, which were obtained by the experimental method specified above. The appendices “a”, “b” and “c” give differentiation by different dosage with otherwise the same harmful plants tested.

[2] = test system: Abutilon theophrasti (ABUTH); assay: as above; conditions: rated visually after about 3 weeks vs untreated controls, 100% = plants have died
Procedure: as §1, §2

[3] = test system: Amaranthus retroflexus (AMARE); assay: as above; conditions: rated visually after about 3 weeks vs untreated controls, 100% = plants have died
Procedure: as §1, §2

[4] = test system: Pharbitis purpurea (PHBPU); assay: as above
Procedure: as §1, §2

[5] = test system: Polygonum convolvulus (POLCO); assay: as above
Procedure: as §1, §2

[6] = test system: Viola tricolor (VIOTR); assay: as above
Procedure: as §1, §2

[7] = test system: Alopecurus myosuroides (ALOMY); assay: Post-emergence herbicidal action, greenhouse pot test (also comparative test C); conditions: rated visually after about 3 weeks vs untreated controls, 100% = plants have died
Procedure: as §1, §2
(§3) C. Comparative Herbicidal Action and Crop Plant Compatibility of Two Inventive Compounds (I.7-1 and I.7-115) with a Compound of Similar Structure Known from the Literature (WO2002/098227, a-17 and EP1106607, 3-14) in Post-Emergence Treatment.
(§4) Tables C1-C4 below show the effects of two inventive compounds (I.7-1 and I.7-115) together with a compound of similar structure known from the literature (a-17 in WO2002/098227, and 3-14 in EP1106607) in different crop plants at an application rate corresponding to 5 g/ha or less, which have been obtained by the aforementioned experimental procedure.

[8] = test system: Setaria viridis (SETVI); assay: as above; conditions: for Post-emergence action against SETVI: 20 g/ha
Procedure: as §1, §2, §3, §4

[9] = test system: Matricaria inodora (MATIN); assay: as above
Procedure: as §1, §2, §3, §4

[10] = test system: Echinochloa crus-galli (ECHCG); assay: as above
Procedure: as §1, §2, §3, §4

[11] = test system: Triticum aestivum (TRZAS); assay: Post-emergence crop plant compatibility, greenhouse pot test; conditions: vs untreated controls
Procedure: as §1
(§5) The observed effects on selected crop plants are reported here in comparison to the untreated controls (values in %). The appendices “a”, “b” and “c” give differentiation by different dosage with otherwise the same crop plants tested.

[12] = test system: Zea mays (ZEAMX); assay: as above; conditions: 1.25 g/ha, vs untreated controls
Procedure: as §1, §5

[13] = test system: Oryza sativa (ORYSA); assay: Post-emergence crop plant compatibility, greenhouse pot test (also comparative test C); conditions: for Post-emergence action against ORYSA (crop plant compatibility): vs untreated controls
Procedure: as §1, §5, §3

Row | SMILES | Post-emergence action against VERPE ([1]; 5 g/ha) [%] | Post-emergence action against VERPE ([1]; 20 g/ha) [%] | Post-emergence action at 5 g/ha against ABUTH in % [2] [%] | Post-emergence action at 20 g/ha against ABUTH in % [2] [%] | Post-emergence action at 1.25 g/ha against AMARE in % [3] [%] | Post-emergence action at 5 g/ha against AMARE in % [3] [%] | Post-emergence action at 20 g/ha against AMARE in % [3] [%] | Post-emergence action against PHBPU in % ([4]; dosage 5 g/ha) [%] | Post-emergence action against PHBPU in % ([4]; dosage 20 g/ha) [%] | Post-emergence action against POLCO in % ([5]; dosage 20 g/ha) [%] | Post-emergence action against VIOTR ([6]; 1.25 g/ha) [%] | Post-emergence action against VIOTR ([6]; 5 g/ha) [%] | Post-emergence action against VIOTR ([6]; 20 g/ha) [%] | Post-emergence action against SETVI [8] [%] | Post-emergence action against SETVI in % ([8]; dosage 1.25 g/ha) [%] | Post-emergence action against SETVI in % ([8]; dosage 5 g/ha) [%] | Post-emergence action against MATIN in % ([9]; dosage 20 g/ha) [%] | Post-emergence action against ECHCG in % ([10]; dosage 5 g/ha) [%] | Post-emergence action against ECHCG in % ([10]; dosage 20 g/ha) [%] | Post-emergence action against TRZAS (crop plant compatibility) ([11]; 1.25 g/ha) [%] | also measured
1 | COCCOCCOC(=O)COc1ccc(F)cc1Oc1cc(-n2c(=O)cc(C(F)(F)F)n(C)c2=O)c(F)cc1Cl [I.23-23] | 100 | 100 | 100 | 100 | 100 | 100 | 100 | 100 | 100 | 100 | 100 | 100 | 100 | 100 | 100 | 100 | 100 | 100 | 100 | 20 | Post-emergence action against PHBPU in % ([4]; dosage 1.25 g/ha): 100%; Post-emergence action against POLCO in % ([5]; dosage 1.25 g/ha): 100%; Post-emergence action against POLCO in % ([5]; dosage 5 g/ha): 100%; Post-emergence action at 20 g/ha against ALOMY in % [7]: 100%; Post-emergence action against ZEAMX (crop plant compatibility) [12]: 20%
2 | Cn1c(C(F)(F)F)cc(=O)n(-c2cc(Oc3ccccc3OCC(=O)OCc3cccnc3)c(Cl)cc2F)c1=O [I.7-277] | 100 | 100 | 100 | 100 | 100 | 100 | 100 | 100 | 100 | 100 | 80 | 100 | 100 | 100 | 100 | 100 | 100 | 100 | 100 | 0 | Post-emergence action against VERPE ([1]; 1.25 g/ha): 100%; Post-emergence action at 1.25 g/ha against ABUTH in % [2]: 90%; Post-emergence action against ORYSA (crop plant compatibility) ([13]; 1.25 g/ha): 0%; Post-emergence action against ORYSA (crop plant compatibility) ([13]; 5 g/ha): 0%; Post-emergence action against ORYSA in % ([13]; 20 g/ha, crop plant compatibility): 20%; Post-emergence action at 20 g/ha against ALOMY in % [7]: 100%; Post-emergence action against MATIN in % ([9]; dosage 5 g/ha): 80%; Post-emergence action against TRZAS (crop plant compatibility) ([11]; 5 g/ha): 20%; Post-emergence action against ZEAMX (crop plant compatibility) [12]: 0%
3 | Cn1c(C(F)(F)F)cc(=O)n(-c2cc(Oc3ccccc3OCC(=O)OCCC[N+](=O)[O-])c(Cl)cc2F)c1=O [I.7-339] | 100 | 100 | 100 | 100 | 100 | 100 | 100 | 100 | 100 | 100 | 100 | 100 | 100 | 100 | 100 | 100 | 100 | 100 | 100 | 0 | Post-emergence action against VERPE ([1]; 1.25 g/ha): 80%; Post-emergence action at 1.25 g/ha against ABUTH in % [2]: 90%; Post-emergence action against PHBPU in % ([4]; dosage 1.25 g/ha): 100%; Post-emergence action against POLCO in % ([5]; dosage 5 g/ha): 100%; Post-emergence action against ORYSA (crop plant compatibility) ([13]; 1.25 g/ha): 0%; Post-emergence action against ORYSA (crop plant compatibility) ([13]; 5 g/ha): 10%; Post-emergence action at 5 g/ha against ALOMY in % [7]: 100%; Post-emergence action at 20 g/ha against ALOMY in % [7]: 100%; Post-emergence action against MATIN in % ([9]; dosage 5 g/ha): 100%; Post-emergence action against TRZAS (crop plant compatibility) ([11]; 5 g/ha): 20%; Post-emergence action against ZEAMX (crop plant compatibility) [12]: 20%
4 | COCCOC(=O)COc1ccccc1Oc1cc(-n2c(=O)cc(C(F)(F)F)n(C)c2=O)c(F)cc1C#N [I.9-1] | 100 | 100 | 100 | 100 | 100 | 100 | 100 | 100 | 100 | 100 | 100 | 100 | 100 | 100 | 80 | 100 | 100 | 90 | 100 | 0 | Post-emergence action against VERPE ([1]; 1.25 g/ha): 100%; Post-emergence action at 1.25 g/ha against ABUTH in % [2]: 100%; Post-emergence action against ORYSA (crop plant compatibility) ([13]; 1.25 g/ha): 0%; Post-emergence action against ORYSA (crop plant compatibility) ([13]; 5 g/ha): 20%; Post-emergence action against MATIN in % ([9]; dosage 5 g/ha): 80%; Post-emergence action against TRZAS (crop plant compatibility) ([11]; 5 g/ha): 10%; Post-emergence action against TRZAS (crop plant compatibility) ([11]; 20 g/ha): 10%; Post-emergence action against ZEAMX (crop plant compatibility) [12]: 10%
5 | COCCOCCOC(=O)COc1cccc(F)c1Oc1cc(-n2c(=O)cc(C(F)(F)F)n(C)c2=O)c(F)cc1Cl [I.19-23] | 100 | 100 | 100 | 100 | 100 | 100 | 100 | 100 | 100 | 100 |  | 100 | 100 | 100 | 100 | 100 | 100 | 100 | 100 | 10 | Post-emergence action against VERPE ([1]; 1.25 g/ha): 100%; Post-emergence action against PHBPU in % ([4]; dosage 1.25 g/ha): 100%; Post-emergence action against POLCO in % ([5]; dosage 1.25 g/ha): 100%; Post-emergence action against POLCO in % ([5]; dosage 5 g/ha): 100%; Post-emergence action against ORYSA (crop plant compatibility) ([13]; 1.25 g/ha): 10%; Post-emergence action at 5 g/ha against ALOMY in % [7]: 80%; Post-emergence action at 20 g/ha against ALOMY in % [7]: 100%; Post-emergence action against MATIN in % ([9]; dosage 5 g/ha): 100%
